viability, T/C and IC50 data for 11 compounds are collected here from PubChem BioAssay AID2060500 (Molecular Pharmacology Branch, DTP, NCI, 2025).

The assay deals with 596521-263-R-J1-PDC complex spheroids, viability % of control. Nature of the assay: Anticancer human tumor 596521-263-R-J1-PDC patient-derived soft tissue sarcoma cell line growth inhibition [GQUAD]. The settings on record: for viability, T/C: stronger effect = lower value. The text has this:
DNA G-quadruplex Stabilizer Agents in Combinations in Complex Spheroids
A high-throughput screen of multi-cell type tumor spheroids was designed to identify active combinations of DNA G-quadruplex stabilizer agents and targeted small molecules. Complex spheroids include a stromal component modeled by human endothelial cells (HUVEC) and fibroblasts modeled by human mesenchymal stem cells (MSCs). The concentration ranges selected for each drug and investigational agent were based upon clinically achievable concentrations if the clinical Cmax of the agent was known.
Compounds. The drugs and investigational agents: pidnarulex (CX-5461; NSC782164), APTO-253 (NSC789042), BRACO-19 (NSC847499), peposertib (NSC802822), ceralasertib (NSC780249), elimusertib (NSC800525), camonsertib (NSC841442), AZD-1390 (NSC803789), olaparib (NSC753686), talazoparib (NSC767125), ART-558 (NSC835418), sotorasib (NSC818433), MRTX-1133 (NSC836407), SN-38 (NSC673596), topotecan (NSC609699), etoposide (NSC141540), doxorubicin (NSC123127), gemcitabine (NSC613327), 5-fluorouracil (NSC19893), paclitaxel (NSC125973), vemurafenib (NSC761431), panobinostat (NSC761190), R-306465 (JNJ-16241199; NSC773264), adavosertib (NSC754352), TP-3654 (NSC805149), carboplatin (NSC241240), KSQ-4279 (NSC840948), and staurosporine (NSC755774) were obtained from the National Cancer Institute (NCI) Developmental Therapeutics Program Chemical Repository (34). The FDA-approved anticancer drug set is available from the NCI Developmental Therapeutics Program. […] The stock solutions were prepared in dimethyl sulfoxide (DMSO, Sigma-Aldrich, St. Louis, MO, cat. D2650) at 800-fold the tested concentration and stored at -70 degrees C prior to their use. All drugs and investigational agents were tested over a range starting from a high concentration at or near the clinical Cmax and decreasing in half-log increments. If the clinical Cmax for an agent had not been determined, the highest concentration tested was 10 microM.
2.3 Cell Culture. All cells were maintained in an incubator at 37 degrees C and 5% CO2 with 95% humidity. The PDC lines were cultured according to standard operating procedures established by the NCI PDMR. All PDCs were thawed and cultured in Matrigel-coated flasks prepared with a working solution of 1X Ham's F-12 nutrient mix, without supplementation (Invitrogen, cat. 11765054), 100 U/mL penicillin-streptomycin (Invitrogen, cat. 15140122), and 2.5% Matrigel (Corning Inc., cat. 354248) for the first three passages. The 857933-349-R-J2-PDC line was cultured in 6C/Colon 1B media, which includes advanced DMEM/F-12 (Thermo Fisher Scientific, cat. 12634028), 10 mM HEPES (Thermo Fisher Scientific, cat. 15630080), 1X GlutaMAX supplement (Thermo Fisher Scientific, cat. 35050061), 0.1 mg/mL primocin (InvivoGen, cat. ant-pm-2), 10% defined fetal bovine serum, heat inactivated (HyClone Laboratories Inc., cat. SH30070.03HI), 50% L-WRN conditioned media (ATCC, cat. CRL-3276), 1.25 mM N-Acetyl-L-cysteine (Sigma-Aldrich, cat. A9165), 10 mM nicotinamide (Sigma-Aldrich, cat. N0636), 1X B-27 supplement (Thermo Fisher Scientific, cat. 17504044), 1X N-2 supplement (Thermo Fisher Scientific, cat. 17502048), 10 microM Y-27632 dihydrochloride (Tocris Bioscience, cat. 1254), and 50 ng/mL human EGF recombinant protein (Thermo Fisher Scientific, cat. PHG0311). The 485176-168-R4-J1-PDC line was cultured in Panc media, which includes all 6C/Colon 1B media components plus 100 ng/mL human FGF-10 (Thermo Fisher Scientific, cat. 100-26), 500 nM SB-431542 (Selleckchem, cat. S1067), and gastrin (Tocris, cat. 3006).
[…]

Values joined by “and” are separate entries in the source; they are usually repeats but may differ in a detail not shown here. Equal entries are not always repeated. Bounds are passed on as bounds.
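Also: spheroids exposed to drugs for 7 days before viability reading.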

As to `C#Cc1c(F)ccc2cc(O)cc(-c3ncc4c(N5CC6CCC(C5)N6)nc(OCC56CCCN5CC(F)C6)nc4c3F)c12` (centres undefined), the viability, T/C by setting is: (compound 0.0316 µM) 87.5% and 92.6% and 98.3%; (compound 0.1 µM) 94.6% and 94.2% and 103%; (compound 0.316 µM) 92.4% and 101% and 107%; (compound 1 µM) 89.7% and 67.3% and 92.5%; (compound 3.16 µM) 124% and 22.8% and 104%; (compound 10 µM) 75% and 22.5% and 78.4%. The IC50 (curve of compound) was > 10 µM and 1.56 µM.

As for `C=CC(=O)N1CCN(c2nc(=O)n(-c3c(C)ccnc3C(C)C)c3nc(-c4c(O)cccc4F)c(F)cc23)C(C)C1` (centres undefined), the viability, T/C is, setting by setting: (compound 0.0316 µM) 107% and 105% and 114%; (compound 0.1 µM) 92.7% and 91.9% and 95.5%; (compound 0.316 µM) 96.9% and 101% and 108%; (compound 1 µM) 114% and 120% and 118%; (compound 3.16 µM) 96.2% and 97% and 113%; (compound 10 µM) 73.2% and 66.5% and 84.6%. For the setting “curve of compound”, the IC50 is > 10 µM.

Turning to `CC(=O)O[C@H]1C(=O)[C@@]2(C)[C@H]([C@H](OC(=O)c3ccccc3)[C@]3(O)C[C@H](OC(=O)[C@H](O)[C@@H](NC(=O)c4ccccc4)c4ccccc4)C(C)=C1C3(C)C)[C@]1(OC(C)=O)CO[C@@H]1C[C@@H]2O`, the viability, T/C is, setting by setting: (compound 0.0316 µM) 76.3% and 38.3% and 43.2%; (compound 0.1 µM) 42.8% and 28.9% and 29%; (compound 0.316 µM) 10.7% and 26.6% and 31.2%. Where the note is “curve of compound”, the 50% inhibitory concentration (IC50) is 0.0783 µM and < 0.0316 µM.

For the compound `CC(C)n1c(=O)n(C)c2cnc3cc(F)c(-c4ccc(OCCCN5CCCCC5)nc4)cc3c21`, the viability, T/C runs as follows: (compound 0.0316 µM) 95.5% and 105% and 103%; (compound 0.1 µM) 92.9% and 102% and 101%; (compound 0.316 µM) 82.4% and 94.7% and 101%; (compound 1 µM) 91.1% and 106% and 92%; (compound 3.16 µM) 81.2% and 87.7% and 86.1%; (compound 10 µM) 61.1% and 71.2% and 64.3%. Further, under “curve of compound”, the IC50 was > 10 µM.

Take `CC1COCCN1c1cc(-c2ccnn2C)c2ccnc(-c3ccn[nH]3)c2n1` (centres undefined): the viability, T/C reads like this: (compound 0.0316 µM) 78.3% and 73.2% and 70.2%; (compound 0.1 µM) 59.2% and 55.7% and 62.7%; (compound 0.316 µM) 57.2% and 47.1% and 50.2%; (compound 1 µM) 43.9% and 42.6% and 44.5%; (compound 3.16 µM) 30.3% and 34% and 31.6%; (compound 10 µM) 24.4% (2×) and 23.9%. Further, the IC50 (curve of compound) is 0.452 µM and 0.275 µM and 0.412 µM.

Regarding `CC1COCCN1c1cc(C2(O)CC3CCC(C2)O3)c2cnn(-c3ccn[nH]3)c2n1` (centres undefined), the viability, T/C (compound 0.0316 µM) was 68.2% and 80.2% and 69%; the viability, T/C (compound 0.1 µM) is 66.9% and 48.7% and 53.4%; the viability, T/C (compound 0.316 µM) is 39.5% and 49.8% and 44.3%; the viability, T/C (compound 1 µM) is 32.1% and 33.8% and 33.2%; the viability, T/C (compound 3.16 µM) was 21.9% and 25.7% and 22.9%; the viability, T/C (compound 10 µM) was 12.9% and 16.6% and 12.2%. In addition, under “curve of compound”, the IC50 is 0.226 µM and 0.195 µM and 0.173 µM.

Consider `CC1COCCN1c1cc(C2(S(C)(=N)=O)CC2)nc(-c2ccnc3[nH]ccc23)n1` (centres undefined), for which the viability, T/C was 95.1% and 98% and 118% (compound 0.0316 µM); 110% and 95.7% and 101% (compound 0.1 µM); 84.8% and 84.3% and 101% (compound 0.316 µM); 83.6% and 72.9% and 77.3% (compound 1 µM); 73.7% and 63.8% and 58% (compound 3.16 µM); 52.1% and 46.3% and 51.5% (compound 10 µM). For the same compound, the IC50 (curve of compound) was > 10 µM and 7.96 µM.

On to `CC[C@@]1(O)C(=O)OCc2c1cc1n(c2=O)Cc2cc3c(CN(C)C)c(O)ccc3nc2-1`, for which the viability, T/C reads like this: (compound 0.000999 µM) 102% and 100% and 105%; (compound 0.00316 µM) 102% and 88.7% and 106%; (compound 0.00999 µM) 87.2% and 87.7% and 96.7%; (compound 0.0316 µM) 78.6% and 59.5% and 63.7%; (compound 0.0999 µM) 57.2% and 51.5% and 58.3%; (compound 0.316 µM) 52.4% and 46.4% and 50.7%. Further, the IC50 (curve of compound) is > 0.316 µM and 0.0933 µM.

As for `CCc1c2c(nc3ccc(O)cc13)-c1cc3c(c(=O)n1C2)COC(=O)[C@]3(O)CC`, the viability, T/C is 62% and 58.6% and 64.2% (compound 0.000999 µM); 58% and 49.7% and 56.6% (compound 0.00316 µM); 51.5% and 50.8% and 46.9% (compound 0.00999 µM); 34.9% and 28.8% and 33.9% (compound 0.0316 µM); 19.2% and 15.7% and 20.2% (compound 0.0999 µM); 6.84% and 7.73% and 9.09% (compound 0.316 µM). The IC50 (curve of compound) is 0.0105 µM and 0.00682 µM and 0.00681 µM.

Turning to `CN(C)c1ccc(Nc2c3ccc(NC(=O)CCN4CCCC4)cc3nc3cc(NC(=O)CCN4CCCC4)ccc23)cc1`, the viability, T/C reads like this: (compound 0.0316 µM) 102% [middle of 12 runs]; (compound 0.1 µM) 105% [middle of 12 runs]; (compound 0.316 µM) 104% [middle of 12 runs]; (compound 1 µM) 105% [middle of 12 runs]; (compound 3.16 µM) 95.9% [middle of 12 runs]; (compound 10 µM) 67% [middle of 12 runs]. The IC50 (compound alone, run of 04/22/2024) was > 10 µM.

With `COc1cc(C2c3cc4c(cc3C(OC3OC5COC(C)OC5C(O)C3O)C3COC(=O)C23)OCO4)cc(OC)c1O` (centres undefined), the viability, T/C (compound 0.0316 µM) is 107% and 103% (2×); the viability, T/C (compound 0.1 µM) is 87% and 88.9% and 88.6%; the viability, T/C (compound 0.316 µM) was 87.5% and 92% and 89.4%; the viability, T/C (compound 1 µM) is 60.7% and 62.7% and 57.5%; the viability, T/C (compound 3.16 µM) was 58.4% and 54.6% and 68.8%; the viability, T/C (compound 10 µM) is 43.3% and 45.5% and 49.7%. For the same compound, the concentration for half-maximal inhibition (IC50) (curve of compound) is 5.48 µM and 4.38 µM and > 10 µM.

As a reminder, the viability, T/C is the ratio of treated to control. For orientation: IC50 means the concentration at which inhibition is half-maximal.
